Data published in patent US20250353891A1 (MEDIMMUNE LIMITED, priority 2022, published 2025).
Starred links: 1 amine or outer side, 2 acyl side, 3 side chain; linkers in the order of their positions; H or OH if unused. Non-standard residues stand in square brackets, D forms with d. Residues, ends and D or L forms follow the SMILES beside them. Groups on a side chain read outwards from the residue. *: point of attachment. C20 diacid = O=C(O)CCCCCCCCCCCCCCCCCCC(=O)*; C18 diacid = O=C(O)CCCCCCCCCCCCCCCCC(=O)*; γGlu = O=C(O)[C@H](CCC(=O)[*:2])N[*:1]; αMeF = C[C@](N)(Cc1ccccc1)C(=O)O; AEEA = NCCOCCOCC(=O)O; Aib = CC(C)(N)C(=O)O

Key:
[1] = target: human glucagon receptor (hGCGR) (Homo sapiens, UniProt P47871); assay: cAMP production (HTRF) in CHO cells expressing hGCGR; format: cell-based; design: expressed in transfected cells; conditions: Table 6, peptides modified at position 17; cAMP in CHO hGCGR cells; geometric mean; read-out: hGluc-R EC50
human glucagon receptor (hGCGR), sequence (P47871 26-477): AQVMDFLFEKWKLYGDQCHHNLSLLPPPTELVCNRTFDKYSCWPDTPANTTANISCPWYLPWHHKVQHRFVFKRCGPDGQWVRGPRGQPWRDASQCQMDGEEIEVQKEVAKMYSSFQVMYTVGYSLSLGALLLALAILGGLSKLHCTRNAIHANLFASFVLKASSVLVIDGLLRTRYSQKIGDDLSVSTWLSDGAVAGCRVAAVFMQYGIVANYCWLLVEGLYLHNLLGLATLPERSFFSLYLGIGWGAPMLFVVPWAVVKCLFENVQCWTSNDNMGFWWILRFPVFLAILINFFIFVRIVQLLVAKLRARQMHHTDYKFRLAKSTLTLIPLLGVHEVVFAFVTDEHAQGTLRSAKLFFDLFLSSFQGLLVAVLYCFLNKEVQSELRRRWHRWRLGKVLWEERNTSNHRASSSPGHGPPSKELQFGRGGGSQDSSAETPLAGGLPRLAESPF
In short: (§1)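 Cells were resuspended in assay buffer at batch-optimized density, typically 1×10^5 cells/mL for hGLP-1R and 2×10^5 cells/mL for hGCGR. After 30 min incubation at room temperature with compound, cAMP was measured by two-step HTRF. EC50 values came from 4-parameter logistic fits of % Delta F.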

[2] = target: human GLP-1 receptor (hGLP-1R) (Homo sapiens, UniProt P43220); assay: cAMP production (HTRF) in CHO cells expressing hGLP-1R; format: cell-based; design: expressed in transfected cells; conditions: for EC50: Table 6, peptides modified at position 17, cAMP in CHO hGLP-1R cells, geometric mean, read-out: hGLP-1R EC50; for % Relative Potency Ratio: Table 6, % GLP-1R activity relative to GLP-1 / % GlucR activity relative to glucagon
human GLP-1 receptor (hGLP-1R), sequence (P43220 24-463): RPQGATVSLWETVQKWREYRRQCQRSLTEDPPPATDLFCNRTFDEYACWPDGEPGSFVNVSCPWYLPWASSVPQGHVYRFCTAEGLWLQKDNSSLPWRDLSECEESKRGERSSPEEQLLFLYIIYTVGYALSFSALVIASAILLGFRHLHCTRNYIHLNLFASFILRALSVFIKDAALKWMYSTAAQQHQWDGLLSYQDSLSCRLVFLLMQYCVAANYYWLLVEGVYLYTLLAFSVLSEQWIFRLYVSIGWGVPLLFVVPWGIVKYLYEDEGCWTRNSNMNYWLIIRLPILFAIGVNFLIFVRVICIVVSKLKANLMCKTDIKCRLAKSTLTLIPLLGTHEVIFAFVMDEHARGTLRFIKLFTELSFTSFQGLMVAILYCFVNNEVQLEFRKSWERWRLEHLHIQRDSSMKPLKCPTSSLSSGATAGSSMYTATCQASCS
In short: as §1

With `CC[C@H](C)[C@H](NC(=O)[C@H](CO)NC(=O)[C@H](CCC(=O)O)NC(=O)[C@@H](NC(=O)[C@](C)(Cc1ccccc1)NC(=O)[C@H](CC(=O)O)NC(=O)[C@H](CCC(N)=O)NC(=O)[C@H](C)NC(=O)[C@H](C)NC(=O)[C@H](CCCCNC(=O)COCCOCCNC(=O)COCCOCCNC(=O)CC[C@H](NC(=O)CCCCCCCCCCCCCCCCC(=O)O)C(=O)O)NC(=O)[C@H](CO)NC(=O)[C@H](CC(=O)O)NC(=O)[C@H](CC(C)C)NC(=O)[C@](C)(Cc1ccccc1)NC(=O)[C@H](CCCCN)NC(=O)[C@H](CO)NC(=O)[C@@H](NC(=O)[C@H](CC(=O)O)NC(=O)[C@H](CO)NC(=O)[C@@H](NC(=O)[C@](C)(Cc1ccccc1)NC(=O)[C@H](CO)NC(=O)CNC(=O)[C@H](Cc1c[nH]cn1)NC(=O)C(C)(C)NC(=O)[C@@H](N)Cc1c[nH]cn1)[C@@H](C)O)C(C)C)C(C)C)C(=O)N[C@@H](C)C(=O)N[C@@H](CC(N)=O)C(=O)N[C@H](C(N)=O)[C@@H](C)O` [Peptide 23] (H-H[Aib]HGS[αMeF]TSDVSK[αMeF]LDSK([AEEA-AEEA-γGlu-C18 diacid])AAQD[αMeF]VESIANT-NH2; N-terminus assumed) as the compound, how does the EC50 [1] read?
The EC50 was 0.321 nM.

What about the EC50 [2] of the same compound?
Its EC50 is 0.266 nM.

What about the “% Relative Potency Ratio” value [2] of the same compound?
The value was 2.4.

What does the source list for `CC[C@H](C)[C@H](NC(=O)C(C)(C)NC(=O)[C@H](CCC(N)=O)NC(=O)[C@@H](NC(=O)[C@](C)(Cc1ccccc1)NC(=O)[C@H](CC(=O)O)NC(=O)[C@H](CCC(N)=O)NC(=O)[C@H](C)NC(=O)[C@H](C)NC(=O)[C@H](CCCCNC(=O)COCCOCCNC(=O)COCCOCCNC(=O)CC[C@H](NC(=O)CCCCCCCCCCCCCCCCC(=O)O)C(=O)O)NC(=O)[C@H](CO)NC(=O)[C@H](CC(=O)O)NC(=O)[C@H](CC(C)C)NC(=O)[C@](C)(Cc1ccccc1)NC(=O)[C@H](CCCCN)NC(=O)[C@H](CO)NC(=O)[C@@H](NC(=O)[C@H](CC(=O)O)NC(=O)[C@H](CO)NC(=O)[C@@H](NC(=O)[C@](C)(Cc1ccccc1)NC(=O)[C@H](CO)NC(=O)CNC(=O)[C@H](Cc1c[nH]cn1)NC(=O)C(C)(C)NC(=O)[C@@H](N)Cc1c[nH]cn1)[C@@H](C)O)C(C)C)C(C)C)C(=O)N[C@@H](C)C(=O)N[C@@H](CC(N)=O)C(=O)N[C@H](C(N)=O)[C@@H](C)O` [Peptide 24] (H-H[Aib]HGS[αMeF]TSDVSK[αMeF]LDSK([AEEA-AEEA-γGlu-C18 diacid])AAQD[αMeF]VQ[Aib]IANT-NH2; N-terminus assumed)?
EC50 [1]: 0.101 nM; EC50 [2]: 0.0828 nM; % Relative Potency Ratio [2]: 2.4

`CC[C@H](C)[C@H](NC(=O)C(C)(C)NC(=O)[C@H](CCC(N)=O)NC(=O)[C@@H](NC(=O)[C@](C)(Cc1ccccc1)NC(=O)[C@H](CC(=O)O)NC(=O)[C@H](CCC(N)=O)NC(=O)[C@H](C)NC(=O)[C@H](C)NC(=O)[C@H](CCCCNC(=O)COCCOCCNC(=O)COCCOCCNC(=O)CC[C@H](NC(=O)CC[C@H](NC(=O)CCCCCCCCCCCCCCCCCCC(=O)O)C(=O)O)C(=O)O)NC(=O)[C@H](CO)NC(=O)[C@H](CC(=O)O)NC(=O)[C@H](CC(C)C)NC(=O)[C@](C)(Cc1ccccc1)NC(=O)[C@H](CCCCN)NC(=O)[C@H](CO)NC(=O)[C@@H](NC(=O)[C@H](CC(=O)O)NC(=O)[C@H](CO)NC(=O)[C@@H](NC(=O)[C@](C)(Cc1ccccc1)NC(=O)[C@H](CO)NC(=O)CNC(=O)[C@H](Cc1c[nH]cn1)NC(=O)C(C)(C)NC(=O)[C@@H](N)Cc1c[nH]cn1)[C@@H](C)O)C(C)C)C(C)C)C(=O)N[C@@H](C)C(=O)N[C@@H](CC(N)=O)C(=O)N[C@H](C(N)=O)[C@@H](C)O` [Peptide 25] (H-H[Aib]HGS[αMeF]TSDVSK[αMeF]LDSK([AEEA-AEEA-γGlu-γGlu-C20 diacid])AAQD[αMeF]VQ[Aib]IANT-NH2) was tested. Which EC50 [1] did it give?
The EC50 was 1.31 nM.

What about the EC50 [2] of the same compound?
Its EC50 is 0.726 nM.

And the “% Relative Potency Ratio” value [2]?
Its value is 3.6.

How did the EC50 [1] turn out when `CC[C@H](C)[C@H](NC(=O)[C@H](Cc1c[nH]c2ccccc12)NC(=O)[C@H](CCC(N)=O)NC(=O)[C@@H](NC(=O)[C@](C)(Cc1ccccc1)NC(=O)[C@H](CC(=O)O)NC(=O)[C@H](CCC(N)=O)NC(=O)[C@H](C)NC(=O)[C@H](C)NC(=O)[C@H](CCCCNC(=O)COCCOCCNC(=O)COCCOCCNC(=O)CC[C@H](NC(=O)CCCCCCCCCCCCCCCCC(=O)O)C(=O)O)NC(=O)[C@H](CO)NC(=O)[C@H](CC(=O)O)NC(=O)[C@H](CC(C)C)NC(=O)[C@](C)(Cc1ccccc1)NC(=O)[C@H](CCCCN)NC(=O)[C@H](CO)NC(=O)[C@@H](NC(=O)[C@H](CC(=O)O)NC(=O)[C@H](CO)NC(=O)[C@@H](NC(=O)[C@](C)(Cc1ccccc1)NC(=O)[C@H](CO)NC(=O)CNC(=O)[C@H](CCC(N)=O)NC(=O)C(C)(C)NC(=O)[C@@H](N)Cc1c[nH]cn1)[C@@H](C)O)C(C)C)C(C)C)C(=O)N[C@@H](C)C(=O)N[C@@H](CC(N)=O)C(N)=O` [Peptide 26] (H-H[Aib]QGS[αMeF]TSDVSK[αMeF]LDSK([AEEA-AEEA-γGlu-C18 diacid])AAQD[αMeF]VQWIAN-NH2) was run?
The EC50 was 8.9 nM.

And the EC50 [2]?
The EC50 was 0.0806 nM.

And the “% Relative Potency Ratio” value [2]?
Its value is 218.5.

What does the source list for `CC[C@H](C)[C@H](NC(=O)[C@H](Cc1c[nH]c2ccccc12)NC(=O)[C@H](CCC(=O)O)NC(=O)[C@@H](NC(=O)[C@](C)(Cc1ccccc1)NC(=O)[C@H](CC(=O)O)NC(=O)[C@H](CCC(N)=O)NC(=O)[C@H](C)NC(=O)[C@H](C)NC(=O)[C@H](CCCCNC(=O)COCCOCCNC(=O)COCCOCCNC(=O)CC[C@H](NC(=O)CCCCCCCCCCCCCCCCC(=O)O)C(=O)O)NC(=O)[C@H](CO)NC(=O)[C@H](CC(=O)O)NC(=O)[C@H](CC(C)C)NC(=O)[C@](C)(Cc1ccccc1)NC(=O)[C@H](CCCCN)NC(=O)[C@H](CO)NC(=O)[C@@H](NC(=O)[C@H](CC(=O)O)NC(=O)[C@H](CO)NC(=O)[C@@H](NC(=O)[C@](C)(Cc1ccccc1)NC(=O)[C@H](CO)NC(=O)CNC(=O)[C@H](CCC(N)=O)NC(=O)C(C)(C)NC(=O)[C@@H](N)Cc1c[nH]cn1)[C@@H](C)O)C(C)C)C(C)C)C(=O)N[C@@H](C)C(=O)N[C@@H](CC(N)=O)C(N)=O` [Peptide 27] (H-H[Aib]QGS[αMeF]TSDVSK[αMeF]LDSK([AEEA-AEEA-γGlu-C18 diacid])AAQD[αMeF]VEWIAN-NH2; N-terminus assumed)?
EC50 [1]: 1.44 nM; EC50 [2]: 0.0182 nM; % Relative Potency Ratio [2]: 156.4

What does the source list for `CC(C)C[C@H](NC(=O)[C@H](Cc1c[nH]c2ccccc12)NC(=O)[C@H](CCCNC(=N)N)NC(=O)[C@@H](NC(=O)[C@H](Cc1ccccc1)NC(=O)[C@H](CC(=O)O)NC(=O)[C@H](CCC(N)=O)NC(=O)[C@H](C)NC(=O)[C@H](CCCNC(=N)N)NC(=O)[C@H](CCCCNC(=O)COCCOCCNC(=O)COCCOCCNC(=O)CC[C@H](NC(=O)CCCCCCCCCCCCCCCCC(=O)O)C(=O)O)NC(=O)[C@H](CO)NC(=O)[C@H](CC(=O)O)NC(=O)[C@H](CC(C)C)NC(=O)[C@](C)(Cc1ccccc1)NC(=O)[C@H](CCCCN)NC(=O)[C@H](CO)NC(=O)[C@@H](NC(=O)[C@H](CC(=O)O)NC(=O)[C@H](CO)NC(=O)[C@@H](NC(=O)[C@H](Cc1ccccc1)NC(=O)[C@@H](NC(=O)CNC(=O)[C@H](CCC(N)=O)NC(=O)C(C)(C)NC(=O)[C@@H](N)Cc1c[nH]cn1)[C@@H](C)O)[C@@H](C)O)C(C)C)C(C)C)C(=O)N[C@@H](CC(C)C)C(=O)NC(C)(C)C(=O)N[C@H](C(=O)O)[C@@H](C)O` [Peptide 28] (H-H[Aib]QGTFTSDVSK[αMeF]LDSK([AEEA-AEEA-γGlu-C18 diacid])RAQDFVRWLL[Aib]T-OH)?
EC50 [1]: 0.26 nM; EC50 [2]: 0.129 nM; % Relative Potency Ratio [2]: 4.0

What does the source list for `CC(C)C[C@H](NC(=O)[C@H](Cc1c[nH]c2ccccc12)NC(=O)[C@H](CCC(N)=O)NC(=O)[C@@H](NC(=O)[C@H](Cc1ccccc1)NC(=O)[C@H](CC(=O)O)NC(=O)C(C)(C)NC(=O)[C@H](C)NC(=O)[C@H](CCCNC(=N)N)NC(=O)[C@H](CCCCNC(=O)COCCOCCNC(=O)COCCOCCNC(=O)CC[C@H](NC(=O)CCCCCCCCCCCCCCCCC(=O)O)C(=O)O)NC(=O)[C@H](CO)NC(=O)[C@H](CC(=O)O)NC(=O)[C@H](CC(C)C)NC(=O)[C@](C)(Cc1ccccc1)NC(=O)[C@H](CCCCN)NC(=O)[C@H](CO)NC(=O)[C@@H](NC(=O)[C@H](CC(=O)O)NC(=O)[C@H](CO)NC(=O)[C@@H](NC(=O)[C@H](Cc1ccccc1)NC(=O)[C@@H](NC(=O)CNC(=O)[C@H](CCC(N)=O)NC(=O)C(C)(C)NC(=O)[C@@H](N)Cc1c[nH]cn1)[C@@H](C)O)[C@@H](C)O)C(C)C)C(C)C)C(=O)N[C@@H](CC(C)C)C(=O)NC(C)(C)C(=O)N[C@H](C(=O)O)[C@@H](C)O` [Peptide 29] (H-H[Aib]QGTFTSDVSK[αMeF]LDSK([AEEA-AEEA-γGlu-C18 diacid])RA[Aib]DFVQWLL[Aib]T-OH; N-terminus assumed)?
EC50 [1]: 0.629 nM; EC50 [2]: 0.107 nM; % Relative Potency Ratio [2]: 11.7

With `CC(C)C[C@H](NC(=O)[C@H](Cc1c[nH]c2ccccc12)NC(=O)[C@H](CCCNC(=N)N)NC(=O)[C@@H](NC(=O)[C@H](Cc1ccccc1)NC(=O)[C@H](CC(=O)O)NC(=O)[C@H](CCC(N)=O)NC(=O)[C@H](C)NC(=O)[C@H](CCCNC(=N)N)NC(=O)[C@H](CCCCNC(=O)COCCOCCNC(=O)COCCOCCNC(=O)CC[C@H](NC(=O)CCCCCCCCCCCCCCCCC(=O)O)C(=O)O)NC(=O)[C@H](CO)NC(=O)[C@H](CC(=O)O)NC(=O)[C@H](CC(C)C)NC(=O)[C@](C)(Cc1ccccc1)NC(=O)[C@H](CCCCN)NC(=O)[C@H](CO)NC(=O)[C@@H](NC(=O)[C@H](CC(=O)O)NC(=O)[C@H](CO)NC(=O)[C@@H](NC(=O)[C@H](Cc1ccccc1)NC(=O)[C@@H](NC(=O)CNC(=O)[C@H](CCC(N)=O)NC(=O)C(C)(C)NC(=O)[C@@H](N)Cc1c[nH]cn1)[C@@H](C)O)[C@@H](C)O)C(C)C)C(C)C)C(=O)N[C@@H](CC(C)C)C(=O)NC(C)(C)C(=O)N[C@H](C(=O)NCC(=O)O)[C@@H](C)O` [Peptide 30] (H-H[Aib]QGTFTSDVSK[αMeF]LDSK([AEEA-AEEA-γGlu-C18 diacid])RAQDFVRWLL[Aib]TG-OH; N-terminus assumed) as the compound, how does the EC50 [1] read?
Its EC50 is 0.235 nM.

What about the EC50 [2] of the same compound?
The EC50 was 0.0527 nM.

What about the “% Relative Potency Ratio” value [2] of the same compound?
The value was 8.8.
